Results reported in patent publication US20260215432A1, “ANTIMICROBIAL CONJUGATED OLIGOELECTROLYTES AND METHODS THEREOF” (National University of Singapore, priority 2023, published 2026).

What was measured:
Assay type in all cases: cell-based
P. aeruginosa = experiment: Resistance development by serial passaging at 0.5× MIC
Experimental: The non-specific action of membrane-active antibiotics lends itself to minimal development of resistance development due to the large metabolic burden involved, unlike traditional antibiotics with a well-defined enzymatic target. Based on this premise, we passaged bacteria incubated with DM6P, or ciprofloxacin (control), at 0.5× MIC to investigate the adaptation of bacteria towards external antibiotic stress. As a control, treatment of MRSA with ciprofloxacin gave rise to antibiotic-resistant mutants within 4 passages, see FIG. 4a. […] Combined with its broad spectrum of activity, this feature opens opportunities for the use of COE antimicrobial agents to address polymicrobial infections with a lower rate of emerging antibiotic resistance.

[1] = tested on: Methicillin-resistant S. aureus (ATCC BAA1717); experiment: MIC, broth microdilution in CA-MHB
Experimental: (§1) Antimicrobial activity was screened against a range of pathogens made up of clinically relevant ESKAPE pathogens by determination of the minimum inhibitory concentration (MIC) in cation-adjusted Mueller-Hinton broth (CA-MHB).
(§2) Minimum inhibitory concentrations of COEs were determined through a broth microdilution method in accordance with the Clinical and Laboratory Standards Institute (CLSI) guidelines M07-A10. A single bacterial colony was isolated from an overnight culture and grown to mid-log phase (OD600~0.8). Compounds were prepared as a stock solution in DMSO and diluted in a sterile flat-bottom 96-well plate in CA-MHB. Subsequent concentrations were prepared by two-fold dilution of the initial solution. An equivalent volume of bacteria was added to the compound to a final concentration of 5×10^5 cfu/mL. Plates were incubated at 37° C. for 16-18 hours, and read at OD600 using a microplate reader (TECAN Spark®). […] MIC values were determined for each compound in triplicate.

A. baumanii (ATCC 17978) = experiment: MIC, broth microdilution in CA-MHB
Experimental: as §1, §2

E. facium (ATCC 19434) = experiment: MIC, broth microdilution in CA-MHB; details: CA-MHB
Experimental: as §1, §2

S. aureus (ATCC 29213) = experiment: MIC, broth microdilution in CA-MHB
Experimental: as §1, §2

[2] = tested on: P. aeruginosa (ATCC47085); experiment: MIC, broth microdilution in CA-MHB
Experimental: as §1, §2

[3] = tested on: K. pneumoniae (carbapenem-resistant Enterobacterales) (ATCC BAA1705); experiment: MIC, broth microdilution in CA-MHB
Experimental: as §1, §2

[4] = tested on: E. coli. K12 (ATCC 10798); experiment: MIC, broth microdilution in CA-MHB
Experimental: as §1, §2

[5] = tested on: E. faecalis OG1RF (ATCC 47077); experiment: MIC, broth microdilution in CA-MHB
Experimental: as §1, §2

Structure (SMILES): COc1cc(/C=C/c2ccc(OCCCCCC[P+](c3ccccc3)(c3ccccc3)c3ccccc3)c(OC)c2)ccc1OCCCCCC[P+](c1ccccc1)(c1ccccc1)c1ccccc1.[I-].[I-] [DM6P]
- resistance development (P. aeruginosa): did not induce any observable resistant mutants
- MIC MRSA ([1]; CA-MHB): 1 µg/mL
- MIC ([1]; strain MRSA, Table 5): 1 µg/mL
- MIC ([1]; towards MRSA, Table 3): 1 µg/mL
- MIC AB (A. baumanii (ATCC 17978); CA-MHB): 8 µg/mL
- MIC (A. baumanii (ATCC 17978); strain AB, Table 5): 8 µg/mL
- MIC FAC (E. facium (ATCC 19434)): 1 µg/mL
- MIC SA (S. aureus (ATCC 29213)): 1 µg/mL
- MIC PA ([2]; CA-MHB): 4 µg/mL
- MIC ([2]; strain PA, Table 5): 4 µg/mL
- MIC KP ([3]; CA-MHB): 8 µg/mL
- MIC ([3]; strain CRKP, Table 5): 8 µg/mL
- MIC EC ([4]; CA-MHB): 2 µg/mL
- MIC ([4]; strain EC, Table 5): 2 µg/mL
- MIC FAE ([5]; CA-MHB): 1 µg/mL
- MIC ([5]; strain EF, Table 5): 1 µg/mL
